{
  "source": "ChEMBL document CHEMBL1909549",
  "about": "“Synthesis, pharmacophore modeling and in vitro activity of 10,11-dihydrodibenzo[b,f]oxepine-4-carboxamide derivatives as novel and potent antagonists of the prostaglandin EP4 receptor” (Bioorg Med Chem Lett, 2011)",
  "key": {"Cytochrome P450 3A4 [1]": {"biological_target": "T1, Cytochrome P450 3A4 (Homo sapiens, UniProt P08684)", "T1 sequence (P08684 whole entry)": "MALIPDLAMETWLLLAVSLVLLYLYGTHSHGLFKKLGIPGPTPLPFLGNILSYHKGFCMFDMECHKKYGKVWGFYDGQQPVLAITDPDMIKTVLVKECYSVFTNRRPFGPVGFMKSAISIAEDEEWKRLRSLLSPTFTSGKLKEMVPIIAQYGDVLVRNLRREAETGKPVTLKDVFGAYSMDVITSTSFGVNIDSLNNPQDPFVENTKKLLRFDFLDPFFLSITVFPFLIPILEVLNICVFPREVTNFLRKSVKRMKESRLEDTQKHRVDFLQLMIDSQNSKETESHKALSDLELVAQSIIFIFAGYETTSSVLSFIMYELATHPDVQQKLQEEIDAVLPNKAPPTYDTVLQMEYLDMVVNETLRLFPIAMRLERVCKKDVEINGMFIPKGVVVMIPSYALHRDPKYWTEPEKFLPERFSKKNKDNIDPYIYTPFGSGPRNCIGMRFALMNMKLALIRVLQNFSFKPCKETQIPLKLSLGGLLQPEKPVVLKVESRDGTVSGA", "assay": "Inhibition of recombinant human CYP3A4 using 7-benzyloxy-4-trifluoromethyl coumarin as substrate at 3 uM by fluorimetry", "format": "ADME", "settings": "recombinant enzyme"}, "[2]": {"biological_target": "Prostaglandin E2 receptor EP2 subtype (Homo sapiens, UniProt P43116)", "sequence (P43116 whole entry)": "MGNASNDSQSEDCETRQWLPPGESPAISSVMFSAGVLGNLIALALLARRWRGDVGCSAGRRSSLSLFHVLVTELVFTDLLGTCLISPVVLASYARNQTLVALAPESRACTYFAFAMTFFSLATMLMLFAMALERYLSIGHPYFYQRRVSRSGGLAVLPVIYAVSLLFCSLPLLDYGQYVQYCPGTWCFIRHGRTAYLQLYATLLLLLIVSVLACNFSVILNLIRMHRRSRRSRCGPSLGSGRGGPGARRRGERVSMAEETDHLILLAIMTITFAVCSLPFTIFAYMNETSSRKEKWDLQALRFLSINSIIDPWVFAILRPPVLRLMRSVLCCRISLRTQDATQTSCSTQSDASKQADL", "assay": "Displacement of [3H]-PGE2 from human EP2 receptor expressed in HEK293 cells", "format": "cell-based"}, "[3]": {"biological_target": "T2, Prostaglandin E2 receptor EP4 subtype (Homo sapiens, UniProt P35408)", "T2 sequence (P35408 whole entry)": "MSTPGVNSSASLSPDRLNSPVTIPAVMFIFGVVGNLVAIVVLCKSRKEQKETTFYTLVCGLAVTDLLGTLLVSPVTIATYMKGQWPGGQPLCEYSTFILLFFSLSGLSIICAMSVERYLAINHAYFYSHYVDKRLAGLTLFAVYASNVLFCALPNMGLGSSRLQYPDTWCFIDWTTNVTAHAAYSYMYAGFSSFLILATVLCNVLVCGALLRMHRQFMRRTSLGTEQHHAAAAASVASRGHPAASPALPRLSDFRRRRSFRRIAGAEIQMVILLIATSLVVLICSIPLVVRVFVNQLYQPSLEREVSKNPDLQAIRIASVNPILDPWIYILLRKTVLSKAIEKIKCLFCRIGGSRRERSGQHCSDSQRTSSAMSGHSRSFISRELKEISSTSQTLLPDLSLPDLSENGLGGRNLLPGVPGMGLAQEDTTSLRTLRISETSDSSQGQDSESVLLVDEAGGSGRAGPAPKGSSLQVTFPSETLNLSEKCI", "assay": "Agonist activity at human EP4 receptor expressed in HEK293 cells assessed as potentiation of cAMP accumulation by bead-based proximity assay in absence of PGE2", "format": "functional, cell-based"}, "Cytochrome P450 3A4 [4]": {"biological_target": "T1, Cytochrome P450 3A4", "assay": "Inhibition of recombinant human CYP3A4 using diethoxyfluorescein as substrate at 3 uM by fluorimetry", "format": "ADME", "settings": "recombinant enzyme"}, "[5]": {"biological_target": "T2, Prostaglandin E2 receptor EP4 subtype", "assay": "Antagonist activity at human EP4 receptor expressed in HEK293 cells assessed as inhibition of PGE2-induced cAMP accumulation by bead-based proximity assay", "format": "functional, cell-based"}, "[6]": {"biological_target": "T2, Prostaglandin E2 receptor EP4 subtype", "assay": "Displacement of [3H]-PGE2 from human EP4 receptor expressed in HEK293 cells", "format": "cell-based"}, "Cytochrome P450 1A2": {"biological_target": "T3, Cytochrome P450 1A2 (Homo sapiens, UniProt P05177)", "T3 sequence (P05177 whole entry)": "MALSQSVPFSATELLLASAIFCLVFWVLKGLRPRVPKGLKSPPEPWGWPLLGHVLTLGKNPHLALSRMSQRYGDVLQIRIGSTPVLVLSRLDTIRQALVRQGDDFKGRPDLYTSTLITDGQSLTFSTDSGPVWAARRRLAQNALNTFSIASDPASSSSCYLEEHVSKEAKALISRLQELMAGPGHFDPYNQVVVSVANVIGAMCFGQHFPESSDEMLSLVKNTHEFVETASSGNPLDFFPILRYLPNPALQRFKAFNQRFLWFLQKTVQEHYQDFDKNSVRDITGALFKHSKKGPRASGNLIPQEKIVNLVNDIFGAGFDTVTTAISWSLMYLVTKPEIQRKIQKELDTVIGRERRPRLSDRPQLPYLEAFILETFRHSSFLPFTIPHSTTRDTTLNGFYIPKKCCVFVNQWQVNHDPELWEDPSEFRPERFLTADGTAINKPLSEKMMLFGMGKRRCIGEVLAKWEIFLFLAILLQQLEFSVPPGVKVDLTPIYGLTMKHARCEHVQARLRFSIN", "assay": "Inhibition of recombinant human CYP1A2 at 3 uM by fluorimetry", "format": "ADME", "settings": "recombinant enzyme"}, "CYP2C9": {"biological_target": "CYP2C9 (Homo sapiens, UniProt P11712)", "sequence (P11712 whole entry)": "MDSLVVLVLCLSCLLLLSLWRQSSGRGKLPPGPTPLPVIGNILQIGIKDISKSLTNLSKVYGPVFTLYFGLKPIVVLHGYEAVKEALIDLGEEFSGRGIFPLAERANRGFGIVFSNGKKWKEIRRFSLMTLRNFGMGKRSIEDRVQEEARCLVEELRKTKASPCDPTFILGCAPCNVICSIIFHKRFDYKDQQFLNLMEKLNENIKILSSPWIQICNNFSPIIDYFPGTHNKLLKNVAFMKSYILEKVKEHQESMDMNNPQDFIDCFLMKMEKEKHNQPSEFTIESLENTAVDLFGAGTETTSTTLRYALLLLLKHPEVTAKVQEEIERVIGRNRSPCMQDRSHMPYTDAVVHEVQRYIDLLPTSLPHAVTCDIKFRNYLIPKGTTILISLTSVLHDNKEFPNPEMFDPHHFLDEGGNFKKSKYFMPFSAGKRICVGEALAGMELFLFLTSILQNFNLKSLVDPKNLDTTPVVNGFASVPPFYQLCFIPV", "assay": "Inhibition of recombinant human CYP2C9 at 3 uM by fluorimetry", "format": "ADME"}, "Cytochrome P450 2D6": {"biological_target": "Cytochrome P450 2D6 (Homo sapiens, UniProt P10635)", "sequence (P10635 whole entry)": "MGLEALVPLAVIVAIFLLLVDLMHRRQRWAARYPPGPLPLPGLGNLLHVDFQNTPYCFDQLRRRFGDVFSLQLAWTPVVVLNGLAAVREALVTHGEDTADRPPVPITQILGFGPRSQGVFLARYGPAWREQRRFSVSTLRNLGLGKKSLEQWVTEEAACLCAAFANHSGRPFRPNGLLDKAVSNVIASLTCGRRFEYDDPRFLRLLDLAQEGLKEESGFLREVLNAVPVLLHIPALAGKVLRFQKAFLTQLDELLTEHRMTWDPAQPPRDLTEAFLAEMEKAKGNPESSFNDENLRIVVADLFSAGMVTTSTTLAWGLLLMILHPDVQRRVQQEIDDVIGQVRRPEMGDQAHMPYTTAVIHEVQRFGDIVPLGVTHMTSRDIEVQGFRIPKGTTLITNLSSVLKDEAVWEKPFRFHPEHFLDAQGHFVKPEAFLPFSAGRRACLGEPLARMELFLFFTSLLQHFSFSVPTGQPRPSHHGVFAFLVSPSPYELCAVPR", "assay": "Inhibition of recombinant human CYP2D6 at 3 uM by fluorimetry", "format": "ADME", "settings": "recombinant enzyme"}, "CYP2C19": {"biological_target": "CYP2C19 (Homo sapiens, UniProt P33261)", "sequence (P33261 whole entry)": "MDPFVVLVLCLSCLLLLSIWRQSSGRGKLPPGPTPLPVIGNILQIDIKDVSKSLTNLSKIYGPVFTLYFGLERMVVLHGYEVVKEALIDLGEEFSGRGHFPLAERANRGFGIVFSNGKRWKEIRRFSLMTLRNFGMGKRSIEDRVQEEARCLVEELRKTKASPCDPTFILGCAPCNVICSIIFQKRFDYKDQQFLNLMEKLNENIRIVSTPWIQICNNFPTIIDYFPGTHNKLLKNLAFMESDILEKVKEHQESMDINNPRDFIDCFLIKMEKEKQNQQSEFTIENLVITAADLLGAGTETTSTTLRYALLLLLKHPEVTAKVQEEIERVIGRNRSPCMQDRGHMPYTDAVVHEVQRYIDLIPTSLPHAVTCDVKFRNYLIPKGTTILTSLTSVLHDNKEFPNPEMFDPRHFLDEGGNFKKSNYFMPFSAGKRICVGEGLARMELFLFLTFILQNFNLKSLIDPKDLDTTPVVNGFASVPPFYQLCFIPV", "assay": "(§1) Inhibition of recombinant human CYP2C19 at 3 uM by fluorimetry", "format": "ADME", "settings": "recombinant human CYP2C19"}, "[7]": {"biological_target": "T2, Prostaglandin E2 receptor EP4 subtype", "assay": "Ratio of CJ-42794 IC50 to compound IC50 for human EP4 receptor expressed in HEK293 cells", "format": "cell-based"}, "Cytochrome P450 2C19": {"biological_target": "Cytochrome P450 2C19 (Homo sapiens, UniProt P33261)", "sequence (P33261 whole entry)": "as above", "assay": "as §1", "format": "ADME", "settings": "recombinant enzyme, 3 µM"}},
  "note": "Active and inactive are the calls of the source. The calls are words filed in the database; no cut-off is given here.",
  "data": [
    {"smiles": "C[C@H](NC(=O)c1cccc2c1Oc1ccc(C(F)(F)F)cc1CC2)c1ccc(C(=O)O)cc1", "values": [
      {"measurement": "inhibition (INH)", "setting": "Cytochrome P450 3A4 [1]", "result": "Not Active"},
      {"measurement": "IC50", "setting": "[2]", "result": "> 1000", "unit": "nM"},
      {"measurement": "Activity", "setting": "[3]", "result": "inactive"},
      {"measurement": "inhibition (INH)", "setting": "Cytochrome P450 3A4 [4]", "result": "Not Active"},
      {"measurement": "IC50", "setting": "[5]", "result": 42, "unit": "nM"},
      {"measurement": "IC50", "setting": "[6]", "result": 63, "unit": "nM"},
      {"measurement": "inhibition (INH)", "setting": "Cytochrome P450 1A2", "result": "Not Active"},
      {"measurement": "inhibition at 3 µM", "setting": "CYP2C9", "result": 17, "unit": "%"},
      {"measurement": "inhibition (INH)", "setting": "Cytochrome P450 2D6", "result": "Not Active"},
      {"measurement": "inhibition at 3 µM", "setting": "CYP2C19", "result": 11, "unit": "%"}
    ]},
    {"smiles": "C[C@H](NC(=O)c1cc(Cl)ccc1Oc1ccc(F)cc1)c1ccc(C(=O)O)cc1", "values": [
      {"measurement": "IC50", "setting": "[2]", "result": "> 1000", "unit": "nM"},
      {"measurement": "IC50", "setting": "[5]", "result": 13, "unit": "nM"},
      {"measurement": "IC50", "setting": "[6]", "result": 10, "unit": "nM"}
    ]},
    {"smiles": "C[C@H](NC(=O)c1cccc2c1Oc1cc(C(F)(F)F)ccc1CC2)c1ccc(C(=O)O)cc1", "values": [
      {"measurement": "inhibition (INH)", "setting": "Cytochrome P450 3A4 [1]", "result": "Not Active"},
      {"measurement": "IC50", "setting": "[2]", "result": "> 1000", "unit": "nM"},
      {"measurement": "Activity", "setting": "[3]", "result": "inactive"},
      {"measurement": "inhibition (INH)", "setting": "Cytochrome P450 3A4 [4]", "result": "Not Active"},
      {"measurement": "IC50", "setting": "[5]", "result": 20, "unit": "nM"},
      {"measurement": "IC50", "setting": "[6]", "result": 2, "unit": "nM"},
      {"measurement": "inhibition (INH)", "setting": "Cytochrome P450 1A2", "result": "Not Active"},
      {"measurement": "inhibition at 3 µM", "setting": "CYP2C9", "result": 21, "unit": "%"},
      {"measurement": "inhibition (INH)", "setting": "Cytochrome P450 2D6", "result": "Not Active"},
      {"measurement": "Ratio IC50", "setting": "[7]", "result": 5},
      {"measurement": "inhibition (INH)", "setting": "Cytochrome P450 2C19", "result": "Not Active"}
    ]},
    {"smiles": "O=C(O)c1ccc(C2(NC(=O)c3cccc4c3Oc3cc(C(F)(F)F)ccc3CC4)CC2)cc1", "values": [
      {"measurement": "inhibition (INH)", "setting": "Cytochrome P450 3A4 [1]", "result": "Not Active"},
      {"measurement": "IC50", "setting": "[2]", "result": "> 1000", "unit": "nM"},
      {"measurement": "Activity", "setting": "[3]", "result": "inactive"},
      {"measurement": "inhibition (INH)", "setting": "Cytochrome P450 3A4 [4]", "result": "Not Active"},
      {"measurement": "IC50", "setting": "[5]", "result": 1000, "unit": "nM"},
      {"measurement": "IC50", "setting": "[6]", "result": 4, "unit": "nM"},
      {"measurement": "inhibition (INH)", "setting": "Cytochrome P450 1A2", "result": "Not Active"},
      {"measurement": "inhibition at 3 µM", "setting": "CYP2C9", "result": 11, "unit": "%"},
      {"measurement": "inhibition (INH)", "setting": "Cytochrome P450 2D6", "result": "Not Active"},
      {"measurement": "inhibition (INH)", "setting": "Cytochrome P450 2C19", "result": "Not Active"}
    ]},
    {"smiles": "O=C(O)c1ccc(C2(NC(=O)c3cccc4c3Oc3ccc(C(F)(F)F)cc3CC4)CC2)cc1", "values": [
      {"measurement": "inhibition (INH)", "setting": "Cytochrome P450 3A4 [1]", "result": "Not Active"},
      {"measurement": "IC50", "setting": "[2]", "result": "> 1000", "unit": "nM"},
      {"measurement": "Activity", "setting": "[3]", "result": "inactive"},
      {"measurement": "inhibition (INH)", "setting": "Cytochrome P450 3A4 [4]", "result": "Not Active"},
      {"measurement": "IC50", "setting": "[5]", "result": 34, "unit": "nM"},
      {"measurement": "IC50", "setting": "[6]", "result": 27, "unit": "nM"},
      {"measurement": "inhibition (INH)", "setting": "Cytochrome P450 1A2", "result": "Not Active"},
      {"measurement": "inhibition at 3 µM", "setting": "CYP2C9", "result": 26, "unit": "%"},
      {"measurement": "inhibition (INH)", "setting": "Cytochrome P450 2D6", "result": "Not Active"},
      {"measurement": "inhibition at 3 µM", "setting": "CYP2C19", "result": 13, "unit": "%"}
    ]}
  ]
}
